How the values were obtained:
JAK1 kinase = biological target: T1, JAK1 kinase (Homo sapiens, UniProt P23458); assay: In vitro inhibitory activity on JAK1 kinase (ADP-Glo Kinase Assay); format: biochemical; settings: JAK1 kinase 4 nM, 1 mM ATP
T1 construct: purchased Invitrogen PV4744
Summary of the method: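 JAK1 (4 nM final) preincubated with compound 15 min at 25° C., then substrate mix (1 mM ATP, IRS1 0.05 mg/ml) added for 60 min at 25° C. ADP-Glo luminescence read-out; top concentration 10 μM, 3-fold, 10 points, duplicates; IC50 reported in ranged classes.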

TYK2 kinase = biological target: T2, TYK2 kinase (Homo sapiens, UniProt P29597); assay: In vitro inhibitory activity on Tyk2 kinase (ADP-Glo Kinase Assay); format: biochemical; settings: TYK2 kinase 4 nM, 1 mM ATP
T2 sequence (P29597 897-1187 limits assumed): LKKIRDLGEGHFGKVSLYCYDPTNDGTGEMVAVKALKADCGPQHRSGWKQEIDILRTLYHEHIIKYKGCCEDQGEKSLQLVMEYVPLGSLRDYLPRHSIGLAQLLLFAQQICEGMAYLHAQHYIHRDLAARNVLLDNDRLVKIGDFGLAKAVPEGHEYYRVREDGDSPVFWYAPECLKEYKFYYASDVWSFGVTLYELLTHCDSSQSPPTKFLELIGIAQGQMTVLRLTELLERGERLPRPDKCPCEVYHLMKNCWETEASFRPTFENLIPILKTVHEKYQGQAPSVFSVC
Procedure: Test Example 2: Determination of In Vitro Inhibitory Activity of the Compounds of the Present Invention on Tyk2 Kinase Experimental materials: TYK2 (Invitrogen, PV4790), ATP (Promega, V915B), ADP-Glo Kinase Assay (Promega, V9101), IRS1 (Signalchem, 140-58-1000). Sample preparation: The compounds of the present invention and the control product were dissolved in DMSO solvent respectively to formulate into 10 mM initial liquid. The maximum concentration of the compound was 10 μM, 3-fold dilution, 10 concentration gradients, and duplicate wells for each concentration gradient. Experimental process: 0.1 μL of the compound to be tested was transferred into a 384 reaction plate (PE, 6007290) via Echo and centrifuged at 1000 rpm/min for 1 min. 5 μL TYK2 kinase (final concentration of 4 nM) was transferred into the 384 reaction plate, which was then centrifuged at 1000 rpm/min for 1 min, and incubated at 25° C. for 15 min. 5 μL substrate mixture (1 mM ATP, IRS1 0.05 mg/ml, kinase buffer solution) was transferred into the 384 reaction plate, which was then centrifuged at 1000 rpm/min for 1 min, and incubated at 25° C. for 60 min. 10 μL ADP-Glo was transferred into the 384 reaction plate, which was then centrifuged at 1000 rpm/min for 1 min, and incubated at 25° C. for 40 min. 20 μL test solution was transferred into the 384 reaction plate, which was centrifuged at 1000 rpm/min for 1 min and incubated at 25° C. for 40 min. RLU (Relative luminescence unit) signal was read by using an Envision multifunctional plate reader. The signal intensity was used to characterize the degree of the kinase activity. […] IC50 value of 0-100 nM is shown as A, IC50 value of 100-300 nM is shown as B, IC50 value of 300-1000 nM is shown as C, and IC50 value which is greater than 1000 nM is shown as D. NT means not tested.

[1] = tested on: IFN-2α-stimulated TYK2/JAK1-mediated pathway (pSTAT3); assay: Inhibition of STAT3 signaling pathway of human whole blood (IFN-2α-induced pSTAT3, flow cytometry); format: cell-based
Procedure: Test Example 3: Inhibition Effect of the Compounds of the Present Invention on STAT3 Signaling Pathway of Human Whole Blood
Sample preparation: The compounds of the present invention and the control were dissolved in DMSO solvent respectively to formulate into 10 mM initial liquid. The maximum concentration of the compound was 10 μM, 3-fold dilution, 10 concentration gradients, and duplicate wells for each concentration gradient.
Experimental process: 20 μL of the compound of the present invention was added to a flow cytometer tube (BD, 352052) containing 180 μL anticoagulant sodium heparin. 20 μL PBS was added to the control. The sample was incubated at 37° C. for 30 min. 2 μL stimulating factor was added and then incubated at 37° C. for 20 min. 1 mL erythrocyte lysate was rapidly added, and the sample was repeatedly inverted 5-10 times or vortexed and then incubated at 37° C. for 10 min. The sample was centrifuged at 600 g for 6-8 min. The supernatant was discarded. The precipitate was vortexed until suspending. The cells were washed with 3 mL PBS and centrifuged at 600 g for 6-8 min. The supernatant was discarded. The precipitate was vortexed until suspending. 1 mL of membrane breaking solution was added, and the system was mixed gently, incubated on ice for 30 min, and centrifuged at 600 g for 6-8 min. The supernatant was discarded. The precipitate was vortexed until suspending. The cells were washed. 3 mL PBS was added. The system was centrifuged at 600 g for 6-8 min. The supernatant was discarded. The precipitate was vortexed untile suspending. The process was repeated twice. 100 μL PBS was added to each staining tube. IFN-2a was added for stimulation, and CD3 and pSTAT3 antibodies […] were added. The system was mixed well, protected from light and incubated at room temperature for 60 min. The cells were washed. 3 mL PBS was added. The system was centrifuged at 600 g for 6-8 min. The supernatant was discarded. The precipitate was vortexed until suspending. The precipitate was suspended in 150 μL in the dark for the flow cytometry analysis. The IC50 (half inhibitory concentration) of the compounds was obtained by using the following non-linear fitting equation:
Y=Bottom+(Top−Bottom)/(1+10^((Log IC50−X)*HillSlope));
X: Log value of the concentration of the compound;
Bottom: The minimum value, Top: The maximum value, HillSlope: Slope
The inhibition effect of by the compounds of the present invention on the IFN-2α-stimulated TYK2/JAK1-mediated pathway is shown in Table 3. IC50 value of 0-100 nM is shown as A, IC50 value of 100-300 nM is shown as B, IC50 value of 300-1000 nM is shown as C, IC50 value which is greater than 1000 nM is shown as D. NT means not tested.

T1 sequence (P23458 866-1154 limits assumed): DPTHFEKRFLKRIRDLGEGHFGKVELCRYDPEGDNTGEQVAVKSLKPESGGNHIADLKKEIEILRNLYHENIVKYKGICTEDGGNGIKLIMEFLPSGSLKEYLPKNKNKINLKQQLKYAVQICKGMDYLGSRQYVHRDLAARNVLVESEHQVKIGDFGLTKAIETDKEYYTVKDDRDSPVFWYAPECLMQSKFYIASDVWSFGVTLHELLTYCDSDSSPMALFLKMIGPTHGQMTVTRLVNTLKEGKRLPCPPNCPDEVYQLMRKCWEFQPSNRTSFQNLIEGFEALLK

Structure (SMILES)	IC50 (JAK1 kinase)	IC50 (TYK2 kinase)	IC50 [1]
Cn1cc(Nc2nccc(C3=CC4CCC(C3)N4C(=O)NC3(C#N)CC3)n2)cn1 (stereo not shown) [Compound 54, N-(1-cyanocyclopropyl)-3-(2-((1-methyl-1H-pyrazol-4-yl)amino)pyrimidin-4-yl)-8-azabicyclo[3.2.1]oct-2-ene-8-carboxamide]	> 1000 nM		< 100 nM
Cn1cc(Nc2ncc(S(C)(=O)=O)c(C3=CC4CCC(C3)N4C(=O)NCC(F)(F)F)n2)cn1 (stereo not shown) [Compound 34, 3-(2-((1-methyl-1H-pyrazol-4-yl)amino)-5-(methylsulfonyl)pyrimidin-4-yl)-N-(2,2,2-trifluoroethyl)-8-azabicyclo[3.2.1]oct-2-ene-8-carboxamide]	> 1000 nM		
Cn1cc(Nc2nccc(C3=CC4CCC(C3)N4C(=O)c3ccc(C(F)(F)F)cn3)n2)cn1 (stereo not shown) [Compound 17, (3-(2-((1-methyl-1H-pyrazol-4-yl)amino)pyrimidin-4-yl)-8-azabicyclo[3.2.1]oct-2-en-8-yl)(5-(trifluoromethyl)pyridin-2-yl)methanone]	> 1000 nM		
Cn1cc(Nc2nccc(C3=CC4CCC(C3)N4C(=O)N3CC(C#N)C3)n2)cn1 (stereo not shown) [Compound 10, 1-(3-(2-((1-methyl-1H-pyrazol-4-yl)amino)pyrimidin-4-yl)-8-azabicyclo[3.2.1]oct-2-ene-8-carbonyl)azetidine-3-nitrile]	> 1000 nM		
Cn1cc(Nc2nccc(C3=CC4CCC(C3)N4C(=O)C3CC3F)n2)cn1 (stereo not shown) [Compound 51, (2-fluorocyclopropyl)(3-(2-((1-methyl-1H-pyrazol-4-yl)amino)pyrimidin-4-yl)-8-azabicyclo[3.2.1]oct-2-en-8-yl)methanone]	< 100 nM		< 100 nM
CCn1cc(Nc2nccc(C3=CC4CCC(C3)N4C(=O)[C@@H]3CC3(F)F)n2)cn1 (stereo partly drawn) [Compound 45, ((S)-2,2-Difluorocyclopropyl)(3-(2-((1-ethyl-1H-pyrazol-4-yl)amino)pyrimidin-4-yl)-8-azabicyclo[3.2.1]oct-2-en-8-yl)methanone]	100 to 300 nM		
Cn1cc(Nc2nccc(C3=CC4CCC(C3)N4C(=O)c3cc(C#N)cs3)n2)cn1 (stereo not shown) [Compound 18, 5-(3-(2-((1-methyl-1H-pyrazol-4-yl)amino)pyrimidin-4-yl)-8-azabicyclo[3.2.1]oct-2-ene-8-formyl)thiophene-3-carbonitrile]	> 1000 nM		

Now from value to compound, other results behind:

IC50 (JAK1 kinase)	IC50 (TYK2 kinase)	Structure (SMILES)	IC50 [1]
< 100 nM	< 100 nM	Cn1cc(Nc2nccc(C3=CC4CCC(C3)N4C(=O)NCC#N)n2)cn1 (stereo not shown) [Compound 2, N-(cyanomethyl)-3-(2-((1-methyl-1H-pyrazol-4-yl)amino)pyrimidin-4-yl)-8-azabicyclo[3.2.1]oct-2-ene-8-carboxamide]	
< 100 nM	< 100 nM	Cn1cc(Nc2ncc(F)c(C3=CC4CCC(C3)N4C(=O)NCC(F)(F)F)n2)cn1 (stereo not shown) [Compound 12, 3-(5-fluoro-2-((1-methyl-1H-pyrazol-4-yl)amino)pyrimidin-4-yl)-N-(2,2,2-trifluoroethyl)-8-azabicyclo[3.2.1]oct-2-ene-8-carboxamide]	
< 100 nM		Cn1cc(Nc2nccc(C3=C[C@@H]4CC[C@H](C3)N4C(=O)NCC(F)(F)F)n2)cn1 [Compound 3-a, (1S,5R)-3-(2-((1-methyl-1H-pyrazol-4-yl)amino)pyrimidin-4-yl)-N-(2,2,2-trifluoroethyl)-8-azabicyclo[3.2.1]oct-2-ene-8-carboxamide]	
< 100 nM		Cn1cc(Nc2ncc(F)c(C3=C[C@H]4CC[C@@H](C3)N4C(=O)NCC(F)(F)F)n2)cn1 [Compound 12-b, (1R,5S)-3-(5-fluoro-2-((1-methyl-1H-pyrazol-4-yl)amino)pyrimidin-4-yl)-N-(2,2,2-trifluoroethyl)-8-azabicyclo[3.2.1]oct-2-ene-8-carboxamide]	
< 100 nM		Cc1cnc(Nc2cnn(CC(C)(C)O)c2)nc1C1=CC2CCC(C1)N2C(=O)NCC(F)(F)F (stereo not shown) [Compound 29, 3-(2-((1-(2-hydroxy-2-methylpropyl)-1H-pyrazol-4-yl)amino)-5-methylpyrimidin-4-yl)-N-(2,2,2-trifluoroethyl)-8-azabicyclo[3.2.1]oct-2-ene-8-carboxamide]	
< 100 nM		Cn1cc(Nc2nccc(C3=CC4CCC(C3)N4C(=O)C3CCC(F)(F)C3)n2)cn1 (stereo not shown) [Compound 70, (3,3-difluorocyclopentyl)(3-(2-((1-methyl-1H-pyrazol-4-yl)amino)pyrimidin-4-yl)-8-azabicyclo[3.2.1]oct-2-en-8-yl)methanone]	
< 100 nM		Cc1cnc(Nc2cn(C)nc2C)nc1C1=CC2CCC(C1)N2C(=O)NCC(F)(F)F (stereo not shown) [Compound 26, 3-(2-((1,3-dimethyl-1H-pyrazol-4-yl)amino)-5-methylpyrimidin-4-yl)-N-(2,2,2-trifluoroethyl)-8-azabicyclo[3.2.1]oct-2-ene-8-carboxamide]	
< 100 nM		Cn1cc(Nc2nccc(C3=CC4CCC(C3)N4C(=O)NC3(C(F)(F)F)CC3)n2)cn1 (stereo not shown) [Compound 33, 3-(2-((1-methyl-1H-pyrazol-4-yl)amino)pyrimidin-4-yl)-N-(1-(trifluoromethyl)cyclopropyl)-8-azabicyclo[3.2.1]oct-2-ene-8-carboxamide]	
< 100 nM	< 100 nM	Cn1cc(Nc2ncc(F)c(C3=CC4CCC(C3)N4C(=O)NCC#N)n2)cn1 (stereo not shown) [Compound 11, N-(cyanomethyl)-3-(5-fluoro-2-((1-methyl-1H-pyrazol-4-yl)amino)pyrimidin-4-yl)-8-azabicyclo[3.2.1]oct-2-ene-8-carboxamide]	
< 100 nM		Cn1cc(Nc2ncc(Cl)c(C3=CC4CCC(C3)N4C(=O)NCC(F)(F)F)n2)cn1 (stereo not shown) [Compound 20, 3-(5-chloro-2-((1-methyl-1H-pyrazol-4-yl)amino)pyrimidin-4-yl)-N-(2,2,2-trifluoroethyl)-8-azabicyclo[3.2.1]oct-2-ene-8-carboxamide]	

Reference: patent US20220348572A1, “BRIDGED HETEROCYCLYL-SUBSTITUTED PYRIMIDINE COMPOUND, PREPARATION METHOD THEREFOR, AND PHARMACEUTICAL USE THEREOF” (The National Institutes of Pharmaceutical R&D Co., Ltd., priority 2019, published 2022)
